The source of these data is patent US12465614B2, “Budesonide 21-phosphate salts and pharmaceutical compositions containing the same” (GENETIC S.P.A., priority 2020, dated 2025).

The test system of test [1] is Bradykinin acetate (BK)-induced skin edema in mice. The test can be described thus: Cutaneous edema: BK-induced plasma extravasation, Evans blue method (Experimental Groups IV). The class given is in vivo. On the procedure:
Male C57Bl/6 SPF mice (25±2 g, 6-week-old) were purchased from the animal house facilities at the São Paulo School of Medicine (Federal University of São Paulo, Brazil). They were group-housed in a temperature-controlled room at 22° C. with a 12/12-hour light/dark cycle, had free access to food and water and were allowed to acclimate to our local facility for one week before the start of the experimental procedures. The study agrees with the Ethical Principles for Animal Research established by the Brazilian College for Animal Experimentation (COBEA). According to the internal laboratory rules, euthanasia is performed if severe distress related to the test agents developed during the experiment. […] The vehicle for dissolution of the compounds was sterile saline solution (0.9% NaCl) containing 12.5% DMSO (Sigma Chemical Co., St. Louis, MO). The compound solutions were prepared at concentrations such that the administered dose per kg of body weight results from the intraperitoneal (i.p.) administration of 10 ml/kg of each of the solutions. Bradykinin acetate (BK; cat. B3259, Sigma Chemical Co., St. Louis, MO) and compound 48/80 (C48/80; cat. C2313, Sigma Chemical Co., St. […] Skin edema was assessed in mice according to the method previously described by Costa et al. (2006) and Yshii et al (2009). The mice were anesthetized with urethane (25% w/v, 10 ml/kg, i.p.), had their dorsal skin shaved, and thereafter i.p. treated with the vehicle/test compounds. Fifty-five minutes later, a volume of 100 μL of Evans blue dye solution (0.25% in sterile saline) was intravenously (i.v.) injected via the tail vein. Five minutes later, the BK and C48/80 were intradermally (i.d.) injected into the dorsal skin at a fixed volume of 50 μl using a randomized scheme. The same volume of Tyrode solution 50 μl was injected as a control. Thirty minutes later, a 1 ml blood sample was obtained via cardiac puncture and the mice were killed by urethane overdose followed by cervical dislocation. The blood samples were centrifuged at 6,000 g for 4 min to obtain the plasma. The dorsal skin was removed, and the injected sites were punched out using an 8 mm diameter cork borer. […] The dye was extracted from each piece of skin and plasma (100 μl) samples using formamide, and the absorbance of the resulting solutions was measured at 620 nm. The plasma extravasation due to each agent (expressed in μl/site) was calculated as the ratio between the absorbance of each respective skin piece, corrected by the blank value and plasma sample solutions, properly adjusted by the dilution factors. To homogenate data due to the variability of different group of animals (inter-group variations), edema data are expressed as the fold-change response relative to the mean Tyrode (control) response of each experiment.

Test [2] concerns compound 48/80 (C48/80)-induced skin edema in mice. Description: Cutaneous edema: C48/80-induced plasma extravasation, Evans blue method (Experimental Groups IV). The class given is in vivo. To be noted: for C48/80-induced edema: 0.70 μmol/kg i.p. (0.30 mg/kg Bud, 0.36 mg/kg Bud 21-P); for reduction of C48/80-induced plasma extravasation: 2.32 μmol/kg i.p. (1.0 mg/kg Bud, 1.2 mg/kg Bud 21-P), 60 min before i.d. C48/80. On the procedure:
Male C57Bl/6 SPF mice (25±2 g, 6-week-old) were purchased from the animal house facilities at the São Paulo School of Medicine (Federal University of São Paulo, Brazil). They were group-housed in a temperature-controlled room at 22° C. with a 12/12-hour light/dark cycle, had free access to food and water and were allowed to acclimate to our local facility for one week before the start of the experimental procedures. The study agrees with the Ethical Principles for Animal Research established by the Brazilian College for Animal Experimentation (COBEA). According to the internal laboratory rules, euthanasia is performed if severe distress related to the test agents developed during the experiment.
In Protocol 4, Bud (at doses of 1.0 and 0.30 mg/kg) and Bud 21-P (at doses of 1.2 and 0.36 mg/kg) were administered on a molar base, these doses were equivalent to […] μmol/kg of each compound, respectively. The vehicle for dissolution of the compounds was sterile saline solution (0.9% NaCl) containing 12.5% DMSO (Sigma Chemical Co., St. Louis, MO). The compound solutions were prepared at concentrations such that the administered dose per kg of body weight results from the intraperitoneal (i.p.) administration of 10 ml/kg of each of the solutions.
Skin edema was assessed in mice according to the method previously described by Costa et al. (2006) and Yshii et al (2009). The mice were anesthetized with urethane (25% w/v, 10 ml/kg, i.p.), had their dorsal skin shaved, and thereafter i.p. treated with the vehicle/test compounds. Fifty-five minutes later, a volume of 100 μL of Evans blue dye solution (0.25% in sterile saline) was intravenously (i.v.) injected via the tail vein. Five minutes later, the BK and C48/80 were intradermally (i.d.) injected into the dorsal skin at a fixed volume of 50 μl using a randomized scheme. The same volume of Tyrode solution 50 μl was injected as a control. Thirty minutes later, a 1 ml blood sample was obtained via cardiac puncture and the mice were killed by urethane overdose followed by cervical dislocation. The blood samples were centrifuged at 6,000 g for 4 min to obtain the plasma. […] The dye was extracted from each piece of skin and plasma (100 μl) samples using formamide, and the absorbance of the resulting solutions was measured at 620 nm. The plasma extravasation due to each agent (expressed in μl/site) was calculated as the ratio between the absorbance of each respective skin piece, corrected by the blank value and plasma sample solutions, properly adjusted by the dilution factors. To homogenate data due to the variability of different group of animals (inter-group variations), edema data are expressed as the fold-change response relative to the mean Tyrode (control) response of each experiment.

Where [3] appears, read: 0.70 μmol/kg i.p. (0.30 mg/kg Bud, 0.36 mg/kg Bud 21-P).
The mark [4] stands for this setting: 2.32 μmol/kg i.p. (1.0 mg/kg Bud, 1.2 mg/kg Bud 21-P), 60 min before i.d. BK, measured 30 min after.

Take `CCCC1OC2CC3C4CCC5=CC(=O)C=CC5(C)C4C(O)CC3(C)C2(C(=O)CO)O1` (stereo not drawn) [Bud, 11β,21-dihydroxy-16α,17α-(butylidenebis(oxy))pregna-1,4-diene-3.20-dione]: the BK-induced plasma extravasation result in test [1] (setting [3]) is “ineffective”. Moreover, the BK-induced plasma extravasation result in test [1] (setting [4]) was “abolished BK-induced response”. Besides, in test [2], the C48/80-induced edema entry is on record as “ineffective” and the “reduction of C48/80-induced plasma extravasation” value is “approximately 50%”.
As for `CCCC1OC2CC3C4CCC5=CC(=O)C=CC5(C)C4C(O)CC3(C)C2(C(=O)COP(=O)(O)O)O1` (centres unmarked) [B, Budesonide 21-phosphate], the BK-induced plasma extravasation entry in test [1] (setting [3]) is listed as “significantly reduced the BK response”; in test [1] (setting [4]), “abolished BK-induced response”. Besides, the C48/80-induced edema entry in test [2] was “significantly inhibited C48180-induced edema”. In test [2], the “reduction of C48/80-induced plasma extravasation” value is “approximately 50%”.
